{
  "source": "patent US20220062317A1",
  "about": "“NA+/K+ ATPASE INHIBITORS FOR USE IN THE PREVENTION OR TREATMENT OF METASTASIS” (UNIVERSITÄT BASEL, priority 2018, published 2022)",
  "key": {"BR16 cells": {"system": "BR16 cells", "assay": "Tail vein injection of in vitro pre-treated BR16 cells, metastasis seeding", "assay_type": "in vivo, NSG mice", "description": "To test whether ouabain and digitoxin would also enable CTC clusters disruption in vivo, the inventors took a dual approach. First, the inventors tested whether a 17-day in vitro treatment with ouabain and digitoxin would translate into a reduced ability of the treated cells to efficiently seed metastasis in untreated mice (FIG. 7A). To this end, upon treatment, BR16 cells stably expressing GFP-luciferase were injected into the tail vein of NSG mice and noninvasively monitored through luminescence imaging for their ability to seed and propagate metastatic lesions.\nFor tail vein experiments, NOD SCID Gamma (NSG) mice (Jackson Labs) were injected with 1×10^6 BR16-mCherry cells resuspended in 100 μl D-PBS and monitored with IVIS Lumina II (Perkin Elmer). For CTC xenograft mouse model isolation, 1×10^6 LM2-GFP, 1×10^6 BRx50-GFP or 1×10^6 BR16-GFP cells were resuspended in 100 μl of 50% Cultrex PathClear Reduced Growth Factor Basement Membrane Extract (R&D Biosystems, Cat #3533-010-02) in D-PBS and injected orthotopically in NSG mice. Blood draw was performed 4-5 weeks after tumor onset for LM2 cells, 5-6 months after tumor onset for BR16 and 6-7 months after tumor onset for BRx50 cells."}, "BR16 CTC cell line": {"system": "BR16 CTC cell line", "assay": "17-day treatment, WGBS and i-cisTarget analysis of DMRs that gain methylation", "assay_type": "cell-based, human", "settings": "20 nM", "description": "(§1) In order to assess the effect of clustering on DNA methylation patterns and proliferation signature directly BR16 and BRx50 cell lines were cultured for 17 days to ensure that at least 4 divisions would take place. This is to allow proper time for DNA methylation remodeling to take place.\n(§2) Under these conditions, for both CTC derived cell lines, a subset of cluster-associated hypomethylated DMRs from patient and xenografts regain ≥20% methylation.\n(§3) Proteinase K digestion and bisulfite treatment was performed according to manufacturer's instructions for EZ DNA Methylation Direct Kit (Zymo, Cat #D5020). Bisulfite-treated DNA was eluted using 9 μl of Elution Buffer and used for library generation with TruSeq DNA methylation kit (Illumina, Cat #EGMK91396) according to manufacturer's instructions. For amplification, 18 cycles were performed using Failsafe Enzyme (Illumina, Cat #FSE51100) and indexes were introduced with Index Primers' Kit (Illumina, Cat #EGIDX81312). Library purification was performed using Agencourt AMPure XP beads at a ratio of 1:1 according to manufacturer's instructions. To avoid DNA loss during pipetting steps, Corning DeckWork low binding barrier pipet tips were used (Sigma, Cat #CLS4135-4X960EA). Library concentration was estimated using Qubit DS DNA HS Assay Kit according to manufacturer's instructions (Invitrogen, Cat #Q32854).\n(§4) An enrichment score (ES) indicates the over- or underrepresentation of a certain object within a sample of many objects (=enrichment). […] A negative enrichment score indicates the opposite, namely that a feature is less present than to be expected by the values of other features in the sample. […] An enrichment score can be normalized by dividing a specific ES by the mean of the enrichment scores for all objects in the dataset to yield a normalized enrichment score (NES). Normalization of the enrichment score accounts for differences in gene set size and in correlations between gene sets and the expression dataset; therefore, a normalized enrichment scores (NES) can be used to compare analysis results across gene sets. Only TFBS with a NES score […] shown in the analysis."}, "BRx50 CTC cell line": {"system": "BRx50 CTC cell line", "assay": "17-day treatment, WGBS and i-cisTarget analysis of DMRs that gain methylation", "assay_type": "cell-based, human", "settings": "20 nM", "description": "as §1, §2, §3, §4"}},
  "note": "Values joined by “and” are separate entries in the source; they are usually repeats but may differ in a detail not shown here. Equal values may be shown once.",
  "data": [
    {"smiles": "C[C@@H]1O[C@@H](O[C@H]2C[C@@H](O)[C@]3(CO)[C@H]4[C@H](O)C[C@]5(C)[C@@H](C6=CC(=O)OC6)CC[C@]5(O)[C@@H]4CC[C@]3(O)C2)[C@H](O)[C@H](O)[C@H]1O", "note": "[ouabain, Ouabain]", "values": [
      {"measurement": "expression of cleaved caspase 3 compared to control cells", "setting": "BR16 cells; cancer cells in lungs, pre-treated cells, day 1", "value": "significant increase"},
      {"measurement": "ability of BR16 cells to lodge in the lung tissue immediately after injection (bioluminescence flux)", "setting": "BR16 cells; cells pre-treated 17 days in vitro, 20 nM, tail vein, day 0", "value": "did not affect"},
      {"measurement": "ability to survive during the first day upon arrival (bioluminescence flux)", "setting": "BR16 cells; cells pre-treated 17 days in vitro, 20 nM, tail vein, day 1", "value": "reduced ability to survive"},
      {"measurement": "metastatic outgrowth", "setting": "BR16 cells; pre-treated cells, no further treatment in vivo, 72 days upon injection", "value": "delayed metastatic outgrowth"},
      {"measurement": "NES score of TFBS BDP1 in DMRs with ≥20% gain in methylation", "setting": "BR16 CTC cell line; 17-day treatment", "value": 5.64},
      {"measurement": "NES score of TFBS CEBPD in DMRs with ≥20% gain in methylation", "setting": "BR16 CTC cell line; 17-day treatment", "value": 4.05},
      {"measurement": "NES score of TFBS FOS in DMRs with ≥20% gain in methylation", "setting": "BR16 CTC cell line; 17-day treatment", "value": "7.29 and 6.04"},
      {"measurement": "NES score of TFBS FOXG1/O1 in DMRs with ≥20% gain in methylation", "setting": "BR16 CTC cell line; 17-day treatment", "value": "3.74 and 3.39"},
      {"measurement": "NES score of TFBS HMBOX1 in DMRs with ≥20% gain in methylation", "setting": "BR16 CTC cell line; 17-day treatment", "value": 3.89},
      {"measurement": "NES score of TFBS HSF1 in DMRs with ≥20% gain in methylation", "setting": "BR16 CTC cell line; 17-day treatment", "value": 3.71},
      {"measurement": "NES score of TFBS IRF4 in DMRs with ≥20% gain in methylation", "setting": "BR16 CTC cell line; 17-day treatment", "value": 3.244},
      {"measurement": "NES score of TFBS IRX3 in DMRs with ≥20% gain in methylation", "setting": "BR16 CTC cell line; 17-day treatment", "value": 3.63},
      {"measurement": "NES score of TFBS IRX6 in DMRs with ≥20% gain in methylation", "setting": "BR16 CTC cell line; 17-day treatment", "value": 3.63},
      {"measurement": "NES score of TFBS KDM5D in DMRs with ≥20% gain in methylation", "setting": "BR16 CTC cell line; 17-day treatment", "value": 3.11},
      {"measurement": "NES score of TFBS MEIS1 in DMRs with ≥20% gain in methylation", "setting": "BR16 CTC cell line; 17-day treatment", "value": 3},
      {"measurement": "NES score of TFBS NANOG in DMRs with ≥20% gain in methylation", "setting": "BR16 CTC cell line; 17-day treatment", "value": "3.349 and 3.28"},
      {"measurement": "NES score of TFBS OCT4 in DMRs with ≥20% gain in methylation", "setting": "BR16 CTC cell line; 17-day treatment", "value": "3.2 and 3.13 and 3.204"},
      {"measurement": "NES score of TFBS SIX4/5 in DMRs with ≥20% gain in methylation", "setting": "BR16 CTC cell line; 17-day treatment", "value": "6.27 and 6.16"},
      {"measurement": "NES score of TFBS SOX2 in DMRs with ≥20% gain in methylation", "setting": "BR16 CTC cell line; 17-day treatment", "value": "4.82 and 4.51 and 4.24 and 3.28"},
      {"measurement": "NES score of TFBS SOX18 in DMRs with ≥20% gain in methylation", "setting": "BR16 CTC cell line; 17-day treatment", "value": 3.2},
      {"measurement": "NES score of TFBS SRY in DMRs with ≥20% gain in methylation", "setting": "BR16 CTC cell line; 17-day treatment", "value": "6.46 and 6.36"},
      {"measurement": "NES score of TFBS TPPP in DMRs with ≥20% gain in methylation", "setting": "BR16 CTC cell line; 17-day treatment", "value": 3.1},
      {"measurement": "NES score of TFBS YAP5 in DMRs with ≥20% gain in methylation", "setting": "BR16 CTC cell line; 17-day treatment", "value": "3.55 and 3.08"},
      {"measurement": "NES score of TFBS YY2 in DMRs with ≥20% gain in methylation", "setting": "BR16 CTC cell line; 17-day treatment", "value": "6.5,"},
      {"measurement": "NES score of TFBS ZNF274 in DMRs with ≥20% gain in methylation", "setting": "BR16 CTC cell line; 17-day treatment", "value": "4.59 and 3.01"},
      {"measurement": "NES score of TFBS ZNF594 in DMRs with ≥20% gain in methylation", "setting": "BR16 CTC cell line; 17-day treatment", "value": 4.84},
      {"measurement": "number of DMRs with ≥20% gain in methylation", "setting": "BR16 CTC cell line; 17-day treatment", "value": "n = (108)"},
      {"measurement": "gain of methylation in DMRs containing binding sites for stemness-related TFs", "setting": "BR16 CTC cell line; 17 days", "value": "simultaneously affecting the binding sites of OCT4, SOX2 and NANOG"},
      {"measurement": "NES score of TFBS BCL11A in DMRs with ≥20% gain in methylation", "setting": "BRx50 CTC cell line", "value": "3.8 and 3.69"},
      {"measurement": "NES score of TFBS FOS in DMRs with ≥20% gain in methylation", "setting": "BRx50 CTC cell line", "value": 3.91},
      {"measurement": "NES score of TFBS FOXG1/O1 in DMRs with ≥20% gain in methylation", "setting": "BRx50 CTC cell line", "value": "3.53 and 3.25 and 3.1"},
      {"measurement": "NES score of TFBS HMBOX1 in DMRs with ≥20% gain in methylation", "setting": "BRx50 CTC cell line", "value": "3.35 and 3.30 and 3.22"},
      {"measurement": "NES score of TFBS IRX6 in DMRs with ≥20% gain in methylation", "setting": "BRx50 CTC cell line", "value": 3.8},
      {"measurement": "NES score of TFBS MEIS1 in DMRs with ≥20% gain in methylation", "setting": "BRx50 CTC cell line", "value": 4.09},
      {"measurement": "NES score of TFBS NANOG in DMRs with ≥20% gain in methylation", "setting": "BRx50 CTC cell line", "value": 3.61},
      {"measurement": "NES score of TFBS OCT4 in DMRs with ≥20% gain in methylation", "setting": "BRx50 CTC cell line", "value": 3.42},
      {"measurement": "NES score of TFBS RORA in DMRs with ≥20% gain in methylation", "setting": "BRx50 CTC cell line", "value": "4.02 and 3.75"},
      {"measurement": "NES score of TFBS SIX4/5 in DMRs with ≥20% gain in methylation", "setting": "BRx50 CTC cell line", "value": "3.87 and 3.65"},
      {"measurement": "NES score of TFBS SOX18 in DMRs with ≥20% gain in methylation", "setting": "BRx50 CTC cell line", "value": 3.11},
      {"measurement": "NES score of TFBS YY2 in DMRs with ≥20% gain in methylation", "setting": "BRx50 CTC cell line", "value": 3.56},
      {"measurement": "NES score of TFBS ZNF493 in DMRs with ≥20% gain in methylation", "setting": "BRx50 CTC cell line", "value": 3.12},
      {"measurement": "number of DMRs with ≥20% gain in methylation", "setting": "BRx50 CTC cell line", "value": "(n = 121)"}
    ]}
  ]
}
